In paper PMC9908617 (Biochimica et Biophysica Acta. General Subjects, 2023):
Where “and” joins values, the source holds several entries; their conditions need not be identical. Equal entries are not always repeated. Where two headings read alike, the source gives them in different places.

Assays:
[1] = tested on: C[S+](CC[C@H](N)C(=O)[O-])C[C@H]1O[C@@H](n2cnc3c(N)ncnc32)[C@H](O)[C@@H]1O; assay: purified protein, by the assay type; conditions: pH 7.5; 23.0 °C
[2] = biological target: HCoV-NL63 nsp10-nsp16 complex (Human coronavirus NL63, UniProt P0C6X5); assay: biochemical; type: biochemical
Chain of HCoV-NL63 nsp10-nsp16 complex (P0C6X5 6430-6729 limits assumed): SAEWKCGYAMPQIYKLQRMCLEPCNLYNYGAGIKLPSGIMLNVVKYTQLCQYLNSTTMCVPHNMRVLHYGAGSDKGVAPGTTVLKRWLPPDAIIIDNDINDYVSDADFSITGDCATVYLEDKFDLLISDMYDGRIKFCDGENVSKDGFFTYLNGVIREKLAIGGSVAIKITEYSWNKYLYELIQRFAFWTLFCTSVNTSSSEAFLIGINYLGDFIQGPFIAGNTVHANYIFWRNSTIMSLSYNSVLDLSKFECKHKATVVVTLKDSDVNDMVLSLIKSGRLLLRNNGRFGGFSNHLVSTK
Chain of HCoV-NL63 nsp10-nsp16 complex (P0C6X5 3909-4043 partner limits assumed): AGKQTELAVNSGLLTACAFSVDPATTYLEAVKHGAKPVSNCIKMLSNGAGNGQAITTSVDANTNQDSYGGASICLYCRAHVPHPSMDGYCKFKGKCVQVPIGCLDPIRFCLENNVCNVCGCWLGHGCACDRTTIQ

[3] = biological target: HCoV-HKU1 nsp10-nsp16 complex (Human coronavirus HKU1, UniProt P0C6X3); assay: biochemical
Chain of HCoV-HKU1 nsp10-nsp16 complex (P0C6X3 6854-7152 limits assumed): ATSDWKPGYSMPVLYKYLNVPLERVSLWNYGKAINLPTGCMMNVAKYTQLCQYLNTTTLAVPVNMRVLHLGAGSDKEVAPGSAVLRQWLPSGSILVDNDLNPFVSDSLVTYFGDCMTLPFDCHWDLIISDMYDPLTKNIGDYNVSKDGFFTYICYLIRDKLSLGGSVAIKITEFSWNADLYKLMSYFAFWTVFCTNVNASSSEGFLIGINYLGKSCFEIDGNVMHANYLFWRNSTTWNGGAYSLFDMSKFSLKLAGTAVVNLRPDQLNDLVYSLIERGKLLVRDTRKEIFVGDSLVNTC
Chain of HCoV-HKU1 nsp10-nsp16 complex (P0C6X3 4291-4427 partner limits assumed): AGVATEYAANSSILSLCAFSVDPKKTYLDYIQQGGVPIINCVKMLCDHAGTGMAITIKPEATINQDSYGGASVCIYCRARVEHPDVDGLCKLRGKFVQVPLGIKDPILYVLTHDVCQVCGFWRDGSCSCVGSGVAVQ

[4] = biological target: HCoV-229E nsp10-nsp16 complex (Human coronavirus 229E, UniProt P0C6X1); assay: biochemical
Chain of HCoV-229E nsp10-nsp16 complex (P0C6X1 6459-6758 limits assumed): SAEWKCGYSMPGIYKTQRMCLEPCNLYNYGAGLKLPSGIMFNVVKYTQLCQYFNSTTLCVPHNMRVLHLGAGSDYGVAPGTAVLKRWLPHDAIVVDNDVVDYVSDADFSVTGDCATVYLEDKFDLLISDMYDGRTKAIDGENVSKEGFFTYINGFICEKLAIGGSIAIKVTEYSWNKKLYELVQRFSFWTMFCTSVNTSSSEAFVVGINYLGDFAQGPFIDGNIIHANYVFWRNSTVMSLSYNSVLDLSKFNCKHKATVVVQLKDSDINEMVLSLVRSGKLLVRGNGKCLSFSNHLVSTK
Chain of HCoV-229E nsp10-nsp16 complex (P0C6X1 3934-4068 partner limits assumed): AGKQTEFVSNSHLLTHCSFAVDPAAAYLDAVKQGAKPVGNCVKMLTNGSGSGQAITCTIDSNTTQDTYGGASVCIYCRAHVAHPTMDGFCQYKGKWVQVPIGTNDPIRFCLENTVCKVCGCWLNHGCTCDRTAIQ

[5] = biological target: HCoV-OC43 nsp10-nsp16 complex (Human coronavirus OC43, UniProt P0C6X6); assay: biochemical
Chain of HCoV-OC43 nsp10-nsp16 complex (P0C6X6 6797-7095 limits assumed): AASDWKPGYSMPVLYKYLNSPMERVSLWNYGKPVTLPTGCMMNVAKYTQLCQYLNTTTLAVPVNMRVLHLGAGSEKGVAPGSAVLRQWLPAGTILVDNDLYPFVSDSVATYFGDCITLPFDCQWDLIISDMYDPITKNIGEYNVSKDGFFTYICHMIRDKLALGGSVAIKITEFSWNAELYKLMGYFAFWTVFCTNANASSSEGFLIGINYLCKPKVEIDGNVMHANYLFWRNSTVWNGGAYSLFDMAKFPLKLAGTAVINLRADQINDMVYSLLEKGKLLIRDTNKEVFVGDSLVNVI
Chain of HCoV-OC43 nsp10-nsp16 complex (P0C6X6 4233-4369 partner limits assumed): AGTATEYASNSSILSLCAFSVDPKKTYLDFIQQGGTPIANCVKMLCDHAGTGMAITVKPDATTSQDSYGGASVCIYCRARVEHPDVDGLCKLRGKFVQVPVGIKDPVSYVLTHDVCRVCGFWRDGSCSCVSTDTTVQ

[6] = biological target: SARS-CoV-2 nsp10-nsp16 complex (Severe acute respiratory syndrome coronavirus 2, UniProt P0DTD1); assay: biochemical

With “SARS-CoV-2 nsp10-nsp16 complex (Severe acute respiratory syndrome coronavirus 2)” the Km [1] was 5.0 ± 0.7 µM and 2.8 ± 0.4 µM.
“HCoV-229E nsp10-nsp16 complex (Human coronavirus 229E)” showed a Km [1] of 1.8 ± 0.2 µM.
For “SARS-CoV nsp10-nsp16 complex (Severe acute respiratory syndrome-related coronavirus)”, the Km [1] was 5.7 ± 1.1 µM and 2.6 ± 0.4 µM.
For `Nc1ncnc2c1ncn2[C@@H]1O[C@H](CSCC[C@H](N)C(=O)O)[C@@H](O)[C@H]1O` [SAH, S-adenosylhomocysteine], the “fold lower IC50 with N7mGpppAUUAAA versus N7mGpppACCCCC” value ([2]; HCoV-NL63) was 30 fold, the IC50 ([2]; IC50, HCoV-NL63, substrate RNA N7mGpppACCCCC 0.3 μM, 2 μM 3H-SAM) was 2400 ± 400 nM and the IC50 [3] was 200 ± 50 nM. The IC50 ([3]; IC50, HCoV-HKU1, substrate RNA N7mGpppACCCCC 0.3 μM, 2 μM 3H-SAM) was 2100 ± 100 nM, the IC50 [4] was 900 ± 200 nM and the IC50 [5] was 1400 ± 300 nM. For the same compound, the IC50 ([5]; IC50, HCoV-OC43, substrate RNA N7mGpppACCCCC 0.3 μM, 2 μM 3H-SAM) was 4400 ± 1200 nM and the IC50 [6] was 2900 nM and 500 nM.
In the case of “HCoV-HKU1 nsp10-nsp16 complex (Human coronavirus HKU1 (isolate N2))”, the Km [1] is reported as 4.8 ± 1.2 µM and 2.3 ± 0.03 µM.
“HCoV-OC43 nsp10-nsp16 complex (Human coronavirus OC43)” was tested, and the Km [1] was 7.1 ± 0.8 µM and 2.9 ± 0.4 µM.
